Where two headings read alike, the source gives them in different places.
Tests used:
[1] = Midazolam pharmacokinetics; assay type: in vivo, human
[2] = cited from earlier work
[3] = system: organic anion transporting polypeptides (OATPs); details: in vitro; cited from earlier work
[4] = system: ABCG2; details: in vitro; cited from earlier work
[5] = system: ABCB1; details: in vitro; cited from earlier work
[6] = cited from earlier work; remark: listed apart in the source
[7] = assay type: in vivo, human; details: for Increase of sunitinib exposure by grapefruit juice: model estimate; for AUC(0-t): AUC0–24 h
[8] = cited from earlier work; remark: listed apart in the source
[9] = Literature clinical pharmacokinetics of sunitinib; details: follows from half-life ~50 h
[10] = final population PK model, cancer patients
[11] = human, plasma, oral, sunitinib with grapefruit juice when simultaneously taken, mean (range)
[12] = sunitinib with grapefruit juice when simultaneously taken, mean (range)

Cc1ncc2n1-c1ccc(Cl)cc1C(c1ccccc1F)=NC2 [midazolam]
AUC(0-t) ([1]; human, plasma, po, 7.5 mg, Midazolam AUC0–24 h, without GJ, single oral 7.5 mg midazolam, mean (±SEM)): 122 ng·h/mL | Increase of midazolam exposure (AUC0–24 h) by GJ ([1]; second vs first PK day): ~ 50%

Cc1cn(-c2cc(NC(=O)c3ccc(C)c(Nc4nccc(-c5cccnc5)n4)c3)cc(C(F)(F)F)c2)cn1 [nilotinib]
Effect of grapefruit juice on drug exposure [2]: increase

CCN(CC)CCNC(=O)c1c(C)[nH]c(/C=C2\C(=O)Nc3ccc(F)cc32)c1C [sunitinib, Sunitinib malate]
Affinity for OATPs [3]: no affinity | Substrate of drug transporter ABCG2 [4]: moderate substrate | Substrate of drug transporter ABCB1 [5]: moderate substrate | Protein binding in vitro [6]: extensively protein bound | Increase of sunitinib exposure by grapefruit juice ([7]; GJ consumed 7 h before the sunitinib dose): ~ 8.9% | Absorption lag time, estimate [7, 10]: 0.487 h | ka (absorption rate constant), estimate [7, 10]: 0.468 h⁻¹ | Cl/F (apparent clearance), estimate ([7]; final population PK model, cancer patients, oral sunitinib 25-50 mg once daily): 50.5 L/h | Tmax ([7]; human, plasma, oral): 8.2 h | Vd/F ([7]; human, plasma, oral): 3210 L | half-life ([7]; human, plasma, oral): 53 h | AUC(0-t) [7, 11]: 1240 ng·h/mL | AUC(0-t) ([7]; human, plasma, oral, sunitinib without grapefruit juice, steady state, mean (range)): 1120 ng·h/mL | Cmax [7, 11]: 14.4 ng/mL | Cmax ([7]; human, plasma, oral, sunitinib without grapefruit juice, mean (range)): 13 ng/mL | Increase of sunitinib exposure by grapefruit juice ([7]; sunitinib 24 h after last GJ consumption): ~ 5.3% | Increase of sunitinib exposure by grapefruit juice ([7]; sunitinib 72 h after last GJ consumption): ~ 1.3% | Increase of sunitinib exposure by grapefruit juice ([7]; sunitinib started 1 week after last GJ consumption): ~ 0.07% | T max [7, 12]: 8.2 (2.8–12.4) h | t 1/2 (elimination half-life) [7, 12]: 53 (12–107) h | Apparent volume of distribution [8]: ~ 2,000 liters | Effect of food intake on pharmacokinetics [8]: does not affect | Interpatient variability in sunitinib clearance [8]: ~ 40% | half-life [8]: ~ 50 h | Time to reach steady-state PK [9]: ~ 8 days

From PMC3043256 (Cancer Chemotherapy and Pharmacology, 2010)
